Our source for the pest or weed control values is patent publication US9775353B2, “Pesticidally active heterocyclic derivatives with sulphur containing substituents” (Syngenta Participations AG, priority 2014, dated 2017).

Holding throughout (type): in vivo
Experiment [1] deals with Spodoptera littoralis (Egyptian cotton leaf worm). The experiment is described as follows: Example B7: Activity against Spodoptera littoralis (systemic activity). Conditions: 120 h, systemic via lettuce roots in agar, mortality, repellent effect, feeding behavior, growth regulation 5 days after infestation. An excerpt: Example B7: Activity Against Spodoptera littoralis (Egyptian Cotton Leaf Worm) (Systemic Activity) Test compounds were applied by pipette into 24 well plates and mixed with agar. Lettuce seeds were placed on the agar and the multi well plate is closed by another plate which contains also agar. After 7 days the roots have absorbed the compound and the lettuce has grown into the lid plate. The lettuce leaves were now cut off into the lid plate. Spodoptera eggs were pipetted through a plastic stencil on a humid gel blotting paper and the plate closed with it. The samples are checked for mortality, repellent effect, feeding behavior, and growth regulation 5 days after infestation.

Experiment [2] has as its system Myzus persicae (green peach aphid). The experiment is described as follows: Example B8: Activity against Myzus persicae (feeding/residual contact, preventive, mixed population). Conditions: foliar, 144 h, sunflower leaf discs sprayed, mixed ages, mortality 6 DAT. As to the method:
Example B8: Activity Against Myzus persicae (Green Peach Aphid) (Feeding/Residual Contact Activity, Preventive), Mixed Population Sunflower leaf discs were placed on agar in a 24-well microtiter plate and sprayed with test solutions. After drying, the leaf discs were infested with an aphid population of mixed ages. After an incubation period of 6 DAT, samples were checked for mortality and special effects (e.g. phytotoxicity).

Experiment [3] has as its system Spodoptera littoralis (Egyptian cotton leaf worm). The experiment in a line: Example B1: Activity against Spodoptera littoralis (larvicide, feeding/residual contact, preventive). Conditions: foliar, 72 h, cotton leaf discs sprayed, L1 larvae, mortality, repellent effect, feeding behaviour, growth regulation 3 days after treatment. An excerpt:
Example B1: Activity Against Spodoptera littoralis (Egyptian Cotton Leaf Worm) (Larvicide, Feeding/Residual Contact Activity, Preventive) Cotton leaf discs were placed on agar in a 24-well microtiter plate and sprayed with test solutions. After drying, the leaf discs were infested with 5 L1 larvae. The samples were checked for mortality, repellent effect, feeding behaviour, and growth regulation 3 days after treatment (DAT).

In experiment [4] the test system is Bemisia tabaci (cotton white fly). The experiment in a line: Example B5: Activity against Bemisia tabaci (adulticide contact activity, preventative). Conditions: foliar, 168 h, cotton leaf discs sprayed, adult white flies, mortality 7 DAT. How it is done:
Example B5: Activity Against Bemisia tabaci (Cotton White Fly) (Adulticide Contact Activity, Preventative), Adult Cotton leaf discs were placed on agar in a 24-well microtiter plate and sprayed with test solutions. After drying, the leaf discs were infested with adult white flies. After an incubation period of 7 DAT, samples were checked for mortality and special effects (e.g. phytotoxicity).

The test system of experiment [5] is Diabrotica balteata (corn root worm). The experiment is described as follows: Example B3: Activity against Diabrotica balteata (larvae L2 on maize sprouts, feeding/contact, preventative). Conditions: 120 h, maize sprouts sprayed, larval mortality and growth regulation after 5 days. How it is done: Example B3: Activity Against Diabrotica balteata (Corn Root Worm) (Larvae L2 on Maize Sprouts, Feeding/Contact, Preventative) Maize sprouts, placed on an agar layer in 24 well micro titer plates were treated with test solutions by spraying. After drying, the MTPs were infested with L2 larvae (6-10 per well). After an incubation period of 5 days, samples were checked for larval mortality and growth regulation.

Experiment [6] deals with Plutella xylostella (diamond back moth). The experiment is described as follows: Example B2: Activity against Plutella xylostella (larvicide, feeding/residual contact, preventive). Conditions: 120 h, artificial diet, L2 larvae, larval mortality, antifeedant, growth regulation after 5 days. As to the method: Example B2: Activity Against Plutella xylostella (Diamond Back Moth) (Larvicide, Feeding/Residual Contact Activity, Preventive) 24-well microtiter plate (MTP) with artificial diet was treated with test solutions by pipetting. After drying, the MTPs were infested with L2 larvae (10-15 per well). After an incubation period of 5 days, samples were checked for larval mortality, antifeedant and growth regulation.

Experiment [7] concerns Euschistus heros (neotropical brown stink bug). The experiment in a line: Example B10: Activity against Euschistus heros. As to conditions: 120 h, soybean leaf sprayed, N-2 nymphs, mortality 5 days after infestation. As to the method:
Example B10: Activity Against Euschistus heros (Neotropical Brown Stink Bug) Soybean leaf on agar in 24-well microtiter plates were sprayed with aqueous test solutions prepared from 10,000 ppm DMSO stock solutions. After drying the leaf were infested with N-2 nymphs. The samples were assessed for mortality 5 days after infestation.

SMILES strings stand for the structures.

The term pest or weed control denotes the degree to which the test organism was suppressed or injured, in per cent. Low values mean weak suppression, high ones strong suppression. Consider `CCS(=O)(=O)c1cc(-c2ccc(Cl)cc2)cnc1-c1nc2cc(C(F)(F)F)ncc2n1C` [Compound P1, 2-[5-(4-chlorophenyl)-3-ethylsulfonyl-2-pyridyl]-3-methyl-6-(trifluoromethyl)imidazo[4,5-c]pyridine], for which, in experiment [1], the pest or weed control at 12.5 ppm was at least 80%. Also, the pest or weed control at 400 ppm in experiment [2], in experiment [3], in experiment [4], in experiment [5], in experiment [6] and in experiment [7] was over 80% in each case.
`CCS(=O)(=O)c1cc(-c2ccc(Cl)c(Cl)c2)cnc1-c1nc2cc(C(F)(F)F)ncc2n1C` [Compound P6] returned a pest or weed control at 12.5 ppm in experiment [1] of at least 80%. Also, the pest or weed control at 400 ppm in experiment [2], in experiment [3], in experiment [5], in experiment [6] and in experiment [7] was over 80% throughout.
In the case of `CCS(=O)(=O)c1cc(-c2ccc(Cl)cc2Cl)cnc1-c1nc2cc(C(F)(F)F)ncc2n1C` [Compound P8], the pest or weed control at 400 ppm in experiment [2], in experiment [3], in experiment [4], in experiment [5] and in experiment [6] was over 80% each time.
For `CCS(=O)(=O)c1cc(-c2ccc(OC)c(F)c2)cnc1-c1nc2cc(C(F)(F)F)ncc2n1C` [Compound P9], the pest or weed control at 400 ppm in experiment [2], in experiment [3], in experiment [5] and in experiment [6] was over 80% throughout.
In the case of `CCS(=O)(=O)c1cc(-c2cc(C)c(OC)c(C)c2)cnc1-c1nc2cc(C(F)(F)F)ncc2n1C` [Compound P10], the pest or weed control at 400 ppm in experiment [5] and in experiment [6] was over 80% in each case.
Regarding `CCS(=O)(=O)c1cc(-c2cc(F)ccc2F)cnc1-c1nc2cc(C(F)(F)F)ncc2n1C` [Compound P11], the pest or weed control at 400 ppm in experiment [2], in experiment [3], in experiment [5], in experiment [6] and in experiment [7] was over 80% throughout.
`CCS(=O)(=O)c1cc(-c2ccccc2Cl)cnc1-c1nc2cc(C(F)(F)F)ncc2n1C` [Compound P12]: the pest or weed control at 400 ppm in experiment [2], in experiment [3], in experiment [5], in experiment [6] and in experiment [7] was over 80% each time.
Take `CCS(=O)(=O)c1cc(-c2ccc(Cl)cc2C)cnc1-c1nc2cc(C(F)(F)F)ncc2n1C` [Compound P14, 2-[5-(4-chloro-2-methyl-phenyl)-3-ethylsulfonyl-2-pyridyl]-3-methyl-6-(trifluoromethyl)imidazo[4,5-c]pyridine]: the pest or weed control at 400 ppm in experiment [2], in experiment [3], in experiment [5], in experiment [6] and in experiment [7] was over 80% each time.
As to `CCSc1cc(-c2ccc(Cl)cc2)cnc1-c1nc2cc(C(F)(F)F)ncc2n1C` [Compound P15, 2-[5-(4-chlorophenyl)-3-ethylsulfanyl-2-pyridyl]-3-methyl-6-(trifluoromethyl)imidazo[4,5-c]pyridine], the pest or weed control at 400 ppm in experiment [3], in experiment [5], in experiment [6] and in experiment [7] was over 80% each time.
For `CCS(=O)(=O)c1cc(-c2cccc(-c3nnc(C)o3)c2)cnc1-c1nc2cc(C(F)(F)F)ncc2n1C` [Compound P20], the pest or weed control at 400 ppm in experiment [2], in experiment [3], in experiment [4] and in experiment [6] was over 80% throughout.
The molecule `CCS(=O)(=O)c1cc(-c2ccc(Cl)cc2)ccc1-c1nc2cc(C(F)(F)F)ncc2n1C` [Compound P22] showed a pest or weed control at 12.5 ppm in experiment [1] of at least 80%. Further, the pest or weed control at 400 ppm in experiment [3], in experiment [4], in experiment [5], in experiment [6] and in experiment [7] was over 80% in each case.
In the case of `CCS(=O)(=O)c1cc(-c2cccc(-c3nnco3)c2)cnc1-c1nc2cc(C(F)(F)F)ncc2n1C` [Compound P23], the pest or weed control at 12.5 ppm in experiment [1] was at least 80%. In addition, the pest or weed control at 400 ppm in experiment [2], in experiment [3], in experiment [5], in experiment [6] and in experiment [7] was over 80% in each case.
In the case of `CCS(=O)(=O)c1cc(-c2ccc([Si](C)(C)C)cc2)cnc1-c1nc2cc(C(F)(F)F)ncc2n1C` [Compound P26], the pest or weed control at 400 ppm in experiment [5] and in experiment [6] was over 80% throughout.
As for `CCS(=O)(=O)c1cc(-c2ccc(C(F)(F)F)cc2)ccc1-c1nc2cc(C(F)(F)F)ncc2n1C` [Compound P27], the pest or weed control at 12.5 ppm in experiment [1] is at least 80%. Further, the pest or weed control at 400 ppm in experiment [3], in experiment [4], in experiment [5], in experiment [6] and in experiment [7] was over 80% throughout.
Regarding `CCS(=O)(=O)c1cc(-c2ccccc2SC)cnc1-c1nc2cc(C(F)(F)F)ncc2n1C` [Compound P28], the pest or weed control at 400 ppm in experiment [2], in experiment [5] and in experiment [6] was over 80% throughout.
On to `CCS(=O)(=O)c1cc(-c2cccc(CC#N)c2)cnc1-c1nc2cc(C(F)(F)F)ncc2n1C` [Compound P29], for which the pest or weed control at 400 ppm in experiment [2] is over 80%.
The molecule `CCS(=O)(=O)c1cc(-c2ccccc2OCCSC)cnc1-c1nc2cc(C(F)(F)F)ncc2n1C` [Compound P30] yielded a pest or weed control at 400 ppm in experiment [3] of over 80%.
Regarding `CCS(=O)(=O)c1cc(-c2ccc(CC#N)cc2)cnc1-c1nc2cc(C(F)(F)F)ncc2n1C` [Compound P31], the pest or weed control at 400 ppm in experiment [2] and in experiment [6] was over 80% each time.
For `CCSc1ccc(-c2cnc(-c3nc4cc(C(F)(F)F)ncc4n3C)c(S(=O)(=O)CC)c2)cc1` [Compound P32], the pest or weed control at 400 ppm in experiment [2], in experiment [3], in experiment [5], in experiment [6] and in experiment [7] was over 80% in each case.
Take `CCSc1cc(-c2ccc(C(F)(F)F)cc2)ccc1-c1nc2cc(C(F)(F)F)ncc2n1C` [Compound P33]: the pest or weed control at 400 ppm in experiment [5] and in experiment [7] was over 80% each time.
Turning to `CCS(=O)(=O)c1cc(-c2cc(F)c(F)cc2F)cnc1-c1nc2cc(C(F)(F)F)ncc2n1C` [Compound P35], in experiment [1], the pest or weed control at 12.5 ppm was at least 80%. The pest or weed control at 400 ppm in experiment [3], in experiment [5], in experiment [6] and in experiment [7] was over 80% in each case.
As to `CCS(=O)(=O)c1cc(-c2ccc(-n3cccn3)cc2)cnc1-c1nc2cc(C(F)(F)F)ncc2n1C` [Compound P37], the pest or weed control at 400 ppm in experiment [2], in experiment [3], in experiment [5], in experiment [6] and in experiment [7] was over 80% throughout.
As to `CCc1ccccc1-c1cnc(-c2nc3cc(C(F)(F)F)ncc3n2C)c(S(=O)(=O)CC)c1` [Compound P38], the pest or weed control at 400 ppm in experiment [5] and in experiment [6] was over 80% in each case.
